Laboratory results: patent publication US7799907B2, “Method for the preparation of 2′-deoxy-2′,2′-difluorocytidine” (Hanmi Pharm. Co., Ltd, priority 2004, dated 2010)

Test: Stability of moisture content of the hemihydrate and dihydrate forms on storage
Assay type: physicochemical
Settings: for stability for the moisture content changes: under the conditions shown in Table 1
[1] = 40° C. under 75% relative humidity, 1 day
[2] = 40° C. under 75% relative humidity, 7 days
[3] = 40° C. under 75% relative humidity, 14 days

Compound | Moisture content (%) [1] [%] | Moisture content (%) [2] [%] | Moisture content (%) [3] [%] | Moisture content (%) (Air, 1 day) | Moisture content (%) (Air, 7 days) | Moisture content (%) (Air, 14 days) | stability for the moisture content changes
2′-Deoxy-2′,2′-difluorocytidine hemihydrate | 3.7 | 3.8 | 3.8 | 3.6 | 3.7 | 3.4 | stable
Nc1ccn([C@@H]2O[C@H](CO)[C@@H](O)C2(F)F)c(=O)n1.O.O [Dihydrate, 2′-Deoxy-2′,2′-difluorocytidine dihydrate] | 12.1 | 11.9 | 11.7 | 11.6 | 11.8 | 11.7 | stable
